For assay [1], the target named is Kelch domain of human KEAP1 (321-624 aa) (Homo sapiens (Human), UniProt Q14145). Description: KEAP1 KELCH ThermoFluor binding assay.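 Also: Ligand-induced melting temperature shift of E. coli-expressed KEAP1 Kelch protein, Kd estimated from concentration-response curves of ΔTm.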 As to conditions: KEAP Kelch […], 1,8-ANS, pH 7.0, average of results obtained, read-out: Tf Kd. A general note: DSF heats the sample and reads unfolding from a dye or from intrinsic fluorescence.
The test system of assay [2] is Glo-Response ARE-luc2P HEK293 cell line. Briefly: ARE luciferase reporter cell-based assay.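 Also: luciferase signal tracks Nrf2 activation of the ARE once compounds disrupt KEAP1-Nrf2 binding, read with One-Glo reagent, DMSO serving as low control.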 The settings on record: Homo sapiens, HEK293, 24 h, average of results obtained.

The values that follow come from patent US10947252B2, “Inhibitors of KEAP1-Nrf2 protein-protein interaction” (Janssen Pharmaceutica NV, priority 2018, dated 2021).

In general, Kd refers to the constant that tells how readily two partners part at equilibrium. In general, EC50 refers to the concentration that produces a half-maximal response. Higher therefore signals a need for much substance.

Sequence of Kelch domain of human KEAP1 (321-624 aa) (Q14145 321-624): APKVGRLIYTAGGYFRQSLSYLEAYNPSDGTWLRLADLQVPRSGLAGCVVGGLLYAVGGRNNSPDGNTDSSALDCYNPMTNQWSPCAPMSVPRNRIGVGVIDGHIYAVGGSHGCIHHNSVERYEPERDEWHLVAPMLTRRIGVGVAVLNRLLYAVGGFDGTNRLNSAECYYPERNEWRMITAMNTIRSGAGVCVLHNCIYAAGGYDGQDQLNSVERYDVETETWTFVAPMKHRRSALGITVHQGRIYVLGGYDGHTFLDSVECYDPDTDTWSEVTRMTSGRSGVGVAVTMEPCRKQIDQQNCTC

On to `Cc1ccc([C@@H](c2ccn3c(C(F)(F)F)nnc3c2C)C(C)(C)C(=O)O)cc1CN1CC2(CC2)Oc2nc(OCCN3CCOCC3)c(C)cc2S1(=O)=O` (single isomer, unassigned) [Example 597, (*S)-2,2-dimethyl-3-(4-methyl-3-((8′-methyl-7′-(2-morpholinoethoxy)-1′,1′-dioxidospiro[cyclopropane-1,4′-pyrido[2,3-b][1,4,5]oxathiazepin]-2′,(3′H)-yl)methyl)phenyl)-3-(8-methyl-3-(trifluoromethyl)-[1,2,4]triazolo[4,3-a]pyridine-7-yl)propanoic Acid], for which the Kd in assay [1] is < 1 nM. The compound also returned an EC50 in assay [2] of 2.79 nM.

As to `Cc1ccc([C@@H](c2ccn3c(C(F)(F)F)nnc3c2C)C(C)(C)C(=O)O)cc1CN1CC2(CC2)Oc2nc(OCCN3CCCC3)ccc2S1(=O)=O` (single isomer, unassigned) [Example 598, (*S)-3-(3-((1′,1′-dioxido-7′-(2-(pyrrolidine-1-yl)ethoxy)spiro[cyclopropane-1,4′-pyrido[2,3-b][1,4,5]oxathiazepin]-2′(3′H)-yl)methyl)-4-methylphenyl)-2,2-dimethyl-3-(8-methyl-3-(trifluoromethyl)-[1,2,4]triazolo[4,3-a]pyridine-7-yl)propanoic Acid], the Kd in assay [1] was < 1 nM. This compound also displayed an EC50 in assay [2] of 8.85 nM.

Take `Cc1ccc([C@@H](c2ccn3c(C(F)(F)F)nnc3c2C)C(C)(C)C(=O)O)cc1CN1CC2(CCOCC2)Oc2nc(CCC(N)=O)ccc2S1(=O)=O` (single isomer, unassigned) [Example 599, (*S)-3-(3-((7′-(3-amino-3-oxopropyl)-1′,1′-dioxido-2,3,5,6-tetrahydrospiro[pyran-4,4′-pyrido[2,3-b][1,4,5]oxathiazepin]-2′(3′H)-yl)methyl)-4-methylphenyl)-2,2-dimethyl-3-(8-methyl-3-(trifluoromethyl)-[1,2,4]triazolo[4,3-a]pyridine-7-yl)propanoic Acid]: in assay [1], the dissociation constant Kd is < 1 nM. The same compound yielded an EC50 in assay [2] of 246 nM.

For `Cc1ccc([C@@H](c2ccn3c(C(F)(F)F)nnc3c2C)C(C)(C)C(=O)O)cc1CN1CC2(CCOCC2)Oc2nc(O[C@H](C)CN3CCCCC3)c(C)cc2S1(=O)=O` (single isomer, unassigned) [Example 601, (*S)-2,2-Dimethyl-3-(4-methyl-3-((8′-methyl-1′,1′-dioxido-7′-(((*R)-1-(piperidin-1-yl)propan-2-yl)oxy)-2,3,5,6-tetrahydrospiro[pyran-4,4′-pyrido[2,3-b][1,4,5]oxathiazepin]-2′,(3′H)-yl)methyl)phenyl)-3-(8-methyl-3-(trifluoromethyl)-[1,2,4]triazolo[4,3-a]pyridine-7-yl)propanoic Acid], the Kd in assay [1] was < 1 nM. For the same compound, the EC50 in assay [2] came out at 4.79 nM.

For `Cc1ccc([C@@H](c2ccn3c(C(F)(F)F)nnc3c2C)C(C)(C)C(=O)O)cc1CN1CC2(CCOCC2)Oc2nc(O[C@@H](C)CN3CCCCC3)c(C)cc2S1(=O)=O` (single isomer, unassigned) [Example 602, (*S)-2,2-Dimethyl-3-(4-methyl-3-((8′-methyl-1′,1′-dioxido-7′-(((*S)-1-(piperidin-1-yl)propan-2-yl)oxy)-2,3,5,6-tetrahydrospiro[pyran-4,4′-pyrido[2,3-b][1,4,5]oxathiazepin]-2′,(3′H)-yl)methyl)phenyl)-3-(8-methyl-3-(trifluoromethyl)-[1,2,4]triazolo[4,3-a]pyridine-7-yl)propanoic Acid], in assay [1], the dissociation constant Kd is < 1 nM. In assay [2], this compound gave a concentration giving a half-maximal response (EC50) of 2.72 nM.

With `Cc1ccc([C@H](c2ccn3c(C(F)(F)F)nnc3c2C)C(C)(C)C(=O)O)cc1CN1CC2(CCOCC2)Oc2nc(N[C@H](C)CN3CCCCC3)c(C)cc2S1(=O)=O` (single isomer, unassigned) [Example 603, (*R)-2,2-Dimethyl-3-(4-methyl-3-((8′-methyl-1′,1′-dioxido-7′-(((*R)-1-(piperidin-1-yl)propan-2-yl)amino)-2,3,5,6-tetrahydrospiro[pyran-4,4′-pyrido[2,3-b][1,4,5]oxathiazepin]-2′(3′H)-yl)methyl)phenyl)-3-(8-methyl-3-(trifluoromethyl)-[1,2,4]triazolo[4,3-a]pyridine-7-yl)propanoic Acid], in assay [1], the Kd was < 1 nM. The EC50 in assay [2] came out at 55 nM.

Turning to `Cc1ccc([C@@H](c2ccn3c(C(F)(F)F)nnc3c2C)C(C)(C)C(=O)O)cc1CN1CC2(CC2)Oc2nc(OCCN3CCC3)c(C)cc2S1(=O)=O` (single isomer, unassigned) [Example 604, (*S)-3-(3-((7′-(2-(Azetidin-1-yl)ethoxy)-8′-methyl-1′,1′-dioxidospiro[cyclopropane-1,4′-pyrido[2,3-b][1,4,5]oxathiazepin]-2′(3′H)-yl)methyl)-4-methylphenyl)-2,2-dimethyl-3-(8-methyl-3-(trifluoromethyl)-[1,2,4]triazolo[4,3-a]pyridine-7-yl)propanoic Acid], in assay [1], the Kd is < 1 nM. The compound further showed an EC50 in assay [2] of 8.82 nM.

As to `Cc1ccc([C@@H](c2ccn3c(C(F)(F)F)nnc3c2C)C(C)(C)C(=O)O)cc1CN1CC2(CCOCC2)Oc2nc(CCC(=O)NC3CCC3)ccc2S1(=O)=O` (single isomer, unassigned) [Example 605, (*S)-3-(3-((7′-(3-Cyclobutylamino-3-oxopropyl)-1′,1′-dioxido-2,3,5,6-tetrahydrospiro[pyran-4,4′-pyrido[2,3-b][1,4,5]oxathiazepin]-2′(3′H)-yl)methyl)-4-methylphenyl)-2,2-dimethyl-3-(8-methyl-3-(trifluoromethyl)-[1,2,4]triazolo[4,3-a]pyridine-7-yl)propanoic Acid], the Kd in assay [1] is < 1 nM. Moreover, in assay [2], a half-maximal response (EC50) required 109 nM.

For the compound `Cc1ccc([C@@H](c2ccn3c(C(F)(F)F)nnc3c2C)C(C)(C)C(=O)O)cc1CN1CC2(CCOCC2)Oc2nc(OCCO)ccc2S1(=O)=O` (single isomer, unassigned) [Example 606, (*S)-3-(3-((7′-(2-Hydroxyethoxy)-1′,1′-dioxido-2,3,5,6-tetrahydrospiro[pyran-4,4′-pyrido[2,3-b][1,4,5]oxathiazepin]-2′(3′H)-yl)methyl)-4-methylphenyl)-2,2-dimethyl-3-(8-methyl-3-(trifluoromethyl)-[1,2,4]triazolo[4,3-a]pyridine-7-yl)propanoic Acid], the dissociation constant (Kd) in assay [1] came to 1730 nM. In addition, the EC50 in assay [2] was > 20000 nM.

In the case of `Cc1ccc([C@@H](c2ccn3c(C(F)(F)F)nnc3c2C)C(C)(C)C(=O)O)cc1CN1CC2(CCOCC2)Oc2nc(OCCCOCCCO)ccc2S1(=O)=O` (single isomer, unassigned) [Example 607, (*S)-3-(3-((7′-(3-(3-Hydroxypropoxy)propoxy)-1′,1′-dioxido-2,3,5,6-tetrahydrospiro[pyran-4,4′-pyrido[2,3-b][1,4,5]oxathiazepin]-2′(3′H)-yl)methyl)-4-methylphenyl)-2,2-dimethyl-3-(8-methyl-3-(trifluoromethyl)-[1,2,4]triazolo[4,3-a]pyridin-7-yl)propanoic Acid], in assay [1], the equilibrium dissociation constant (Kd) was found to be 1360 nM. The midpoint of the response in assay [2], the EC50, lay at 7620 nM.

As to `Cc1ccc([C@H](c2ccn3c(C(F)(F)F)nnc3c2C)C(C)(C)C(=O)O)cc1CN1CC2(CCOCC2)Oc2nc(OCCCOCCCO)ccc2S1(=O)=O` (single isomer, unassigned) [Example 608, (*R)-3-(3-((7′-(3-(3-Hydroxypropoxy)propoxy)-1′,1′-dioxido-2,3,5,6-tetrahydrospiro[pyran-4,4′-pyrido[2,3-b][1,4,5]oxathiazepin]-2′(3′H)-yl)methyl)-4-methylphenyl)-2,2-dimethyl-3-(8-methyl-3-(trifluoromethyl)-[1,2,4]triazolo[4,3-a]pyridin-7-yl)propanoic Acid], in assay [1], the Kd was < 1 nM. In addition, the midpoint of the response in assay [2], the EC50, lay at 9.12 nM.

`Cc1ccc([C@H](c2ccn3c(C(F)(F)F)nnc3c2C)C(C)(C)C(=O)O)cc1CN1CC2(CCOCC2)Oc2nc(OCCN3CCCC3)c(C)cc2S1(=O)=O` (single isomer, unassigned) [Example 609, (*R)-2,2-Dimethyl-3-(4-methyl-3-((8′-methyl-1′,1′-dioxido-7′-(2-(pyrrolidin-1-yl)ethoxy)-2,3,5,6-tetrahydrospiro[pyran-4,4′-pyrido[2,3-b][1,4,5]oxathiazepin]-2′(3′H)-yl)methyl)phenyl)-3-(8-methyl-3-(trifluoromethyl)-[1,2,4]triazolo[4,3-a]pyridin-7-yl)propanoic Acid]: the Kd in assay [1] turned out to be 634 nM. Further, the 50% effective concentration (EC50) in assay [2] was > 20000 nM.

`Cc1ccc([C@@H](c2ccn3c(C(F)F)nnc3c2C)C(C)(C)C(=O)O)nc1CN1CC2(COC2)Oc2ncccc2S1(=O)=O` (single isomer, unassigned) [Example 610, (*S)-3-(3-(Difluoromethyl)-8-methyl-[1,2,4]triazolo[4,3-a]pyridin-7-yl)-3-(6-((1′,1′-dioxidospiro[oxetane-3,4′-pyrido[2,3-b][1,4,5]oxathiazepin]-2′(3′H)-yl)methyl)-5-methylpyridin-2-yl)-2,2-dimethylpropanoic Acid]: in assay [1], the Kd was < 1 nM. This compound also registered a half-maximal effective concentration (EC50) in assay [2] of 4.42 nM.

For the compound `Cc1ccc([C@H](c2ccn3c(C(F)F)nnc3c2C)C(C)(C)C(=O)O)nc1CN1CC2(COC2)Oc2ncccc2S1(=O)=O` (single isomer, unassigned) [Example 611, (*R)-3-(3-(Difluoromethyl)-8-methyl-[1,2,4]triazolo[4,3-a]pyridin-7-yl)-3-(6-((1′,1′-dioxidospiro[oxetane-3,4′-pyrido[2,3-b][1,4,5]oxathiazepin]-2′(3′H)-yl)methyl)-5-methylpyridin-2-yl)-2,2-dimethylpropanoic Acid], the Kd in assay [1] is 12800 nM. For the same compound, in assay [2], the concentration giving a half-maximal response (EC50) amounted to 574 nM.

Take `Cc1ncc([C@H](c2ccc3c(nnn3C3CC3)c2C)C(C)(C)C(=O)O)cc1CN1CC2(COC2)Oc2ncccc2S1(=O)=O` (single isomer, unassigned) [Example 612, (*S)-3-(1-Cyclopropyl-4-methyl-1H-benzo[d][1,2,3]triazol-5-yl)-3-(5-((1′,1′-dioxidospiro[oxetane-3,4′-pyrido[2,3-b][1,4,5]oxathiazepin]-2′(3′H)-yl)methyl)-6-methylpyridin-3-yl)-2,2-dimethylpropanoic Acid]: in assay [1], the equilibrium dissociation constant (Kd) amounted to 61500 nM. This compound also showed an EC50 in assay [2] of 19900 nM.
